IC50 data for 21 compounds are collected here from patent publication US20240398828A1, “HETERO-ATOM CONTAINING COMPOUNDS AND USES THEREOF” (Kumquat Biosciences Inc., priority 2021, published 2024).

In one assay the target is T1, PTPN2 (i.e., TC-PTP) (Homo sapiens, UniProt P17706).
T1 sequence (P17706 1-415): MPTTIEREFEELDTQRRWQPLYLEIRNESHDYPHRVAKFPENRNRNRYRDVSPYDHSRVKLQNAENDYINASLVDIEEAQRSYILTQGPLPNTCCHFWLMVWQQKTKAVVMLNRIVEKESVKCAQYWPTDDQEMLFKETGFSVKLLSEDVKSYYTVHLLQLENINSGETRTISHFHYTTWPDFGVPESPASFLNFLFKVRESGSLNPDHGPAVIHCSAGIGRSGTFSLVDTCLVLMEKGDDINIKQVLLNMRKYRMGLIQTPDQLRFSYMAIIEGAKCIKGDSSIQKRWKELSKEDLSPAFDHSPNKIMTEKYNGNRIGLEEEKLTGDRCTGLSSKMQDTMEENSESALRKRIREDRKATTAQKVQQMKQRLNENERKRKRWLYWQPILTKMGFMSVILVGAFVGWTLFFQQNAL
Nature of the assay: Phosphatase activity assay (DiFMUP substrate), PTPN2. Type of assay: biochemical. Conditions: compounds binned ≤1 uM or >1 uM. The method, boiled down:
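RT, HEPES pH 7.5 buffer with DTT/Tween-20. 10-point inhibitor series premixed ~2 min with enzyme (PTPN2 0.025 ng/ul). Start with DiFMUP at enzyme Km (~45 μM for PTPN2). Read DiFMU ex360/em450 continuously 15–30 min; initial rate vs concentration, 4-parameter fit → IC50.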

The target in the next assay is T2, PTPN1 (i.e., PTP1B) (Homo sapiens, UniProt P18031).
T2 sequence (P18031 1-435): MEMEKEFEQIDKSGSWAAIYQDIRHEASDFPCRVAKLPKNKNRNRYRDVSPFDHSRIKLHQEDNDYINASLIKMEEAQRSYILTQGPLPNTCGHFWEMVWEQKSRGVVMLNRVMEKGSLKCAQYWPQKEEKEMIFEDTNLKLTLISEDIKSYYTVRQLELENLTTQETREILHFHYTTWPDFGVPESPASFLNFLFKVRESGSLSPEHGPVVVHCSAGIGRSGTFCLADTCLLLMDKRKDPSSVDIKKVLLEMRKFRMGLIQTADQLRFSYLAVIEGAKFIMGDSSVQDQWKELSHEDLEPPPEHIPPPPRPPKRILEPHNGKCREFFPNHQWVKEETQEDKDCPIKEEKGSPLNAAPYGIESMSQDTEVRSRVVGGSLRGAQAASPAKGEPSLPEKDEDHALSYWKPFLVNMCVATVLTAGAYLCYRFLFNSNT
Nature of the assay: Phosphatase activity assay (DiFMUP substrate), PTP1B. Format: biochemical. Particulars: compounds binned ≤1 uM or >1 uM. The method, boiled down:
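First, serially diluted inhibitor is mixed about 2 minutes with enzyme in pH 7.5 HEPES/NaCl/EDTA/DTT/Tween-20 buffer. Next, DiFMUP is added at the enzyme's Km, approximately 45 μM for PTPN2. Finally, DiFMU appearance is read continuously at room temperature and rates are fitted for IC50.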

The term IC50 denotes the concentration at which inhibition is half-maximal. In the case of `O=C1CN(c2c(O)ccc(C3CCN(S(=O)(=O)C4CC4)C3)c2F)S(=O)(=O)N1` (stereo not drawn) [Compound 359, 5-(3-(1-(cyclopropylsulfonyl)pyrrolidin-3-yl)-2-fluoro-6-hydroxyphenyl)-1,2,5-thiadiazolidin-3-one 1,1-dioxide], the 50% inhibitory concentration (IC50) at PTPN2 (i.e., TC-PTP) is no more than 1000 nM; at PTPN1 (i.e., PTP1B) it was no more than 1000 nM.
Consider `O=C1CN(c2c(O)ccc(-c3cnn(C4CCCCCC4)c3)c2F)S(=O)(=O)N1` [Compound 360, 5-(3-(1-cycloheptyl-1H-pyrazol-4-yl)-2-fluoro-6-hydroxyphenyl)-1,2,5-thiadiazolidin-3-one 1,1-dioxide], for which the IC50 at PTPN2 (i.e., TC-PTP) is no more than 1000 nM; on PTPN1 (i.e., PTP1B), no more than 1000 nM.
As for `N#Cc1cccc(-n2cnc(-c3ccc(O)c(N4CC(=O)NS4(=O)=O)c3F)c2)c1` [Compound 361, 3-(4-(3-(1,1-dioxido-4-oxo-1,2,5-thiadiazolidin-2-yl)-2-fluoro-4-hydroxyphenyl)-1H-imidazol-1-yl)benzonitrile], the half-inhibitory concentration (IC50) is no more than 1000 nM on PTPN2 (i.e., TC-PTP) and no more than 1000 nM on PTPN1 (i.e., PTP1B).
Turning to `O=C1CN(c2c(O)ccc(-c3cc(C4=CCOC4)n[nH]3)c2F)S(=O)(=O)N1` [Compound 362, 5-(3-(3-(2,5-dihydrofuran-3-yl)-1H-pyrazol-5-yl)-2-fluoro-6-hydroxyphenyl)-1,2,5-thiadiazolidin-3-one 1,1-dioxide], the half-inhibitory concentration (IC50) on PTPN2 (i.e., TC-PTP) is no more than 1000 nM; on PTPN1 (i.e., PTP1B), no more than 1000 nM.
Regarding `CS(=O)(=O)NC1CC=C(c2ccc(O)c(N3CC(=O)NS3(=O)=O)c2F)CC1` (stereo not drawn) [Compound 363, N-(3′-(1,1-dioxido-4-oxo-1,2,5-thiadiazolidin-2-yl)-2′-fluoro-4′-hydroxy-2,3,4,5-tetrahydro-[1,1′-biphenyl]-4-yl)methanesulfonamide], the 50% inhibitory concentration (IC50) at PTPN2 (i.e., TC-PTP) is no more than 1000 nM; on PTPN1 (i.e., PTP1B) it was no more than 1000 nM.
In the case of `O=C1CN(c2c(O)ccc(-c3cc(C4CC4(F)F)n[nH]3)c2F)S(=O)(=O)N1` (stereo not drawn) [Compound 364, 5-(3-(3-(2,2-difluorocyclopropyl)-1H-pyrazol-5-yl)-2-fluoro-6-hydroxyphenyl)-1,2,5-thiadiazolidin-3-one 1,1-dioxide], the half-maximal inhibitory concentration (IC50) was no more than 1000 nM on PTPN2 (i.e., TC-PTP) and no more than 1000 nM at PTPN1 (i.e., PTP1B).
For the compound `N#CCc1cc(-c2ccc(O)c(N3CC(=O)NS3(=O)=O)c2F)[nH]n1` [Compound 365, 2-(5-(3-(1,1-dioxido-4-oxo-1,2,5-thiadiazolidin-2-yl)-2-fluoro-4-hydroxyphenyl)-1H-pyrazol-3-yl)acetonitrile], the half-maximal inhibitory concentration (IC50) was no more than 1000 nM at PTPN2 (i.e., TC-PTP) and no more than 1000 nM on PTPN1 (i.e., PTP1B).
Turning to `O=C1CN(c2c(O)ccc(-c3cnn(CC(F)(F)F)c3)c2F)S(=O)(=O)N1` [Compound 366, 5-(2-fluoro-6-hydroxy-3-(1-(2,2,2-trifluoroethyl)-1H-pyrazol-4-yl)phenyl)-1,2,5-thiadiazolidin-3-one 1,1-dioxide], the IC50 on PTPN2 (i.e., TC-PTP) is no more than 1000 nM; at PTPN1 (i.e., PTP1B), no more than 1000 nM.
As to `Cn1nc(-c2ccc(O)c(N3CC(=O)NS3(=O)=O)c2F)cc1C1CC1` [Compound 367, 5-(3-(5-cyclopropyl-1-methyl-1H-pyrazol-3-yl)-2-fluoro-6-hydroxyphenyl)-1,2,5-thiadiazolidin-3-one 1,1-dioxide], the concentration for half-maximal inhibition (IC50) at PTPN2 (i.e., TC-PTP) is no more than 1000 nM; at PTPN1 (i.e., PTP1B) it was no more than 1000 nM.
On to `CC(C)(C#N)c1cc(-c2ccc(O)c(N3CC(=O)NS3(=O)=O)c2F)[nH]n1` [Compound 368, 2-(5-(3-(1,1-dioxido-4-oxo-1,2,5-thiadiazolidin-2-yl)-2-fluoro-4-hydroxyphenyl)-1H-pyrazol-3-yl)-2-methylpropanenitrile], for which the IC50 on PTPN2 (i.e., TC-PTP) is no more than 1000 nM; on PTPN1 (i.e., PTP1B), no more than 1000 nM.
Regarding `CCC1(c2cc(-c3ccc(O)c(N4CC(=O)NS4(=O)=O)c3F)[nH]n2)CC1` [Compound 369, 5-(3-(3-(1-ethylcyclopropyl)-1H-pyrazol-5-yl)-2-fluoro-6-hydroxyphenyl)-1,2,5-thiadiazolidin-3-one 1,1-dioxide], the IC50 is no more than 1000 nM at PTPN2 (i.e., TC-PTP) and no more than 1000 nM at PTPN1 (i.e., PTP1B).
Take `CC(C)Cc1cc(-c2ccc(O)c(N3CC(=O)NS3(=O)=O)c2F)[nH]n1` [Compound 370, 5-(2-fluoro-6-hydroxy-3-(3-isobutyl-1H-pyrazol-5-yl)phenyl)-1,2,5-thiadiazolidin-3-one 1,1-dioxide]: the IC50 is no more than 1000 nM on PTPN2 (i.e., TC-PTP) and no more than 1000 nM on PTPN1 (i.e., PTP1B).
Regarding `O=C1CN(c2c(O)ccc(-c3cc(C4CCCCC4)n[nH]3)c2F)S(=O)(=O)N1` [Compound 371, 5-(3-(3-cyclohexyl-1H-pyrazol-5-yl)-2-fluoro-6-hydroxyphenyl)-1,2,5-thiadiazolidin-3-one 1,1-dioxide], the half-inhibitory concentration (IC50) at PTPN2 (i.e., TC-PTP) is no more than 1000 nM; on PTPN1 (i.e., PTP1B) it was no more than 1000 nM.
Consider `COCC1CCCN1c1cc(-c2ccc(O)c(N3CC(=O)NS3(=O)=O)c2F)[nH]n1` (stereo not drawn) [Compound 372, 5-(2-fluoro-6-hydroxy-3-(3-(2-(methoxymethyl)pyrrolidin-1-yl)-1H-pyrazol-5-yl)phenyl)-1,2,5-thiadiazolidin-3-one 1,1-dioxide], for which the IC50 was no more than 1000 nM at PTPN2 (i.e., TC-PTP) and no more than 1000 nM on PTPN1 (i.e., PTP1B).
Regarding `N#CCCc1cc(-c2ccc(O)c(N3CC(=O)NS3(=O)=O)c2F)n[nH]1` [Compound 373, 3-(3-(3-(1,1-dioxido-4-oxo-1,2,5-thiadiazolidin-2-yl)-2-fluoro-4-hydroxyphenyl)-1H-pyrazol-5-yl)propanenitrile], the half-maximal inhibitory concentration (IC50) at PTPN2 (i.e., TC-PTP) is no more than 1000 nM; on PTPN1 (i.e., PTP1B) it was no more than 1000 nM.
`CC(C)S(=O)(=O)Nc1ccc(-c2ccc(O)c(N3CC(=O)NS3(=O)=O)c2F)cc1` [Compound 374, N-(3′-(1,1-dioxido-4-oxo-1,2,5-thiadiazolidin-2-yl)-2′-fluoro-4′-hydroxy-[1,1′-biphenyl]-4-yl)propane-2-sulfonamide]: the 50% inhibitory concentration (IC50) at PTPN2 (i.e., TC-PTP) is no more than 1000 nM; at PTPN1 (i.e., PTP1B) it was no more than 1000 nM.
Consider `Cc1n[nH]c(-c2ccc(O)c(N3CC(=O)NS3(=O)=O)c2F)c1C` [Compound 375, 5-(3-(3,4-dimethyl-1H-pyrazol-5-yl)-2-fluoro-6-hydroxyphenyl)-1,2,5-thiadiazolidin-3-one 1,1-dioxide], for which the half-inhibitory concentration (IC50) at PTPN2 (i.e., TC-PTP) is no more than 1000 nM; on PTPN1 (i.e., PTP1B), no more than 1000 nM.
Regarding `CC(=O)N(C)C1CC=C(c2ccc(O)c(N3CC(=O)NS3(=O)=O)c2F)CC1` (stereo not drawn) [Compound 377, N-(3′-(1,1-dioxido-4-oxo-1,2,5-thiadiazolidin-2-yl)-2′-fluoro-4′-hydroxy-2,3,4,5-tetrahydro-[1,1′-biphenyl]-4-yl)-N-methylacetamide], the IC50 on PTPN2 (i.e., TC-PTP) is no more than 1000 nM; at PTPN1 (i.e., PTP1B), no more than 1000 nM.
With `O=C1CN(c2c(O)ccc(C3=CCCN(C4CC4)C3)c2F)S(=O)(=O)N1` [Compound 378, 5-(3-(1-cyclopropyl-1,2,5,6-tetrahydropyridin-3-yl)-2-fluoro-6-hydroxyphenyl)-1,2,5-thiadiazolidin-3-one 1,1-dioxide], the 50% inhibitory concentration (IC50) is no more than 1000 nM on PTPN2 (i.e., TC-PTP) and no more than 1000 nM on PTPN1 (i.e., PTP1B).
In the case of `CC(C)c1cc(-c2ccc(O)c(N3CC(=O)NS3(=O)=O)c2F)[nH]n1` [Compound 379, 5-(2-fluoro-6-hydroxy-3-(3-isopropyl-1H-pyrazol-5-yl)phenyl)-1,2,5-thiadiazolidin-3-one 1,1-dioxide], the concentration for half-maximal inhibition (IC50) was no more than 1000 nM at PTPN2 (i.e., TC-PTP) and no more than 1000 nM at PTPN1 (i.e., PTP1B).
Regarding `CC(C)CCc1cc(-c2ccc(O)c(N3CC(=O)NS3(=O)=O)c2F)nn1C` [Compound 380, 5-(2-fluoro-6-hydroxy-3-(5-isopentyl-1-methyl-1H-pyrazol-3-yl)phenyl)-1,2,5-thiadiazolidin-3-one 1,1-dioxide], the concentration for half-maximal inhibition (IC50) at PTPN2 (i.e., TC-PTP) is no more than 1000 nM; on PTPN1 (i.e., PTP1B), no more than 1000 nM.
